# Source: patent US11441029B1, “Packaging films, and methods of preparation thereof” (King Abdulaziz University, priority 2022, dated 2022)
# Test system: gram-positive and gram-negative bacteria
# Experiment: Antimicrobial activity of films, bacteria not specified at the place
# Type: cell-based
# Description: Active cultures were prepared by inoculating freshly cultured bacteria or pure colony (24 hours (h)) into lysogeny broth (LB) broth, then incubated in a shaker for 24 h at 30° C. with 200 revolutions per minute (rpm). The optical density (OD) for each culture was set to 0.05, equivalent to 1-2×10^5 colony forming units/millilitre (CFU/mL) by adding LB broth. […] Thereafter, re-suspension was carried out for each sample using 4.6 mL of 0.85 wt. % sodium chloride. Serial dilution was conducted, and 100 microlitre (μL) for each dilution was transferred to LB agar plates. Then, those agar plates were allowed to undergo incubation for 24 h at 30° C. Gentamicin was used as a positive control, and pure PBS film were used as negative control for the microbial culture. […] The whole antimicrobial process was conducted in triplicate to obtain average values. The microbial population was calculated as log CFU per mL sample, and the actual number in each dilution was determined for dishes containing 30-300 colonies using Equation 1 as below: [formula] where C refers to total counts of bacteria in all retained dishes; V refers to volume used for sample dilution; n1 refers to number of retained dishes in first dilution; n2 refers to number of retained dishes in second dilution; D refers to dilution factor of first dilution.
smiles,measurement,value
"[O-]n1ccccc1=S.[O-]n1ccccc1=S.[Zn+2] [SAN, zinc, bis[1-(hydroxy-.kappa.O)-2(1H)-pyridinethionato-.kappa.S2]-,(T-4)-]",antimicrobial activity (general statement),exhibited antimicrobial effects
